Data from patent US20180353613A1, “ANIONIC NANOPARTICLES FOR USE IN THE DELIVERY OF ANIONIC SMALL MOLECULE DRUGS” (B.G. NEGEV TECHNOLOGIES AND APPLICATIONS LTD, priority 2015, published 2018).
Converted amounts (≈) assume the structure as drawn.

Assays:
MDA-MB-231 cells [1] = assay: In vivo antitumor activity in MDA-MB-231 tumor-bearing athymic nude mice; details: 4 mg/kg i.v., three weekly injections
Experimental: Female athymic nude mice (six weeks old, body weight=20-23 g) are inoculated to the right cranial trunk region with MDA-MB-231 cells/Matrigel™ 1:1 (v/v) suspension (3×10^6 cells/0.2 mL/animal). Treatment is commenced when tumor size is approximately 100-150 mm^3. Mice are treated intravenously (i.v.) with three weekly injections of 4 mg/kg ([…] 12 mg/kg) of DOX or DOX NPs in saline. NPs were prepared as described above using the following stock solutions: 2 mg/ml DOX, 1M CaCl2, 50 μg/ml AlgS. Prior to injection: DOX (0.5 mg/ml), or DOX NPs were diluted 1:1.5 in saline. Tumor progression is monitored twice a week by caliper measurement and calculated using the formula: Volume=(width)^2×length/2. Mice are observed daily, and body weight is detected as possible signs of toxicity. For histological analysis, mice are euthanized at the end of the treatments. Following excision, tumors are weighted, fixed in 4% formaldehyde, embedded in paraffin, and sectioned into 5-μm slices. Tissue samples are analyzed by H&E staining for histopathological changes, Ki67 staining for cell proliferation and TUNEL assay for apoptotic cell death.

NAR cells = assay: Cellular uptake of DOX by ImageStreamX imaging flow cytometry; format: cell-based, human; details: 5.8 μg/ml DOX
Experimental: (§1) Imaging experiments using an imaging flow cytometer (Amnis ImageStreamX, ISX) were performed to quantitatively evaluate the cellular uptake of DOX. Cells were seeded in 6-well culture plates at a cell density of 300,000 cells per well. Twenty-four hours post-seeding, the cells were incubated for 4 h with Free DOX or AlgS-Ca^2+-DOX anionic NPs (5.8 μg/ml DOX, 5 mM Ca^2+, 0.5 μg/ml AlgS), and then medium was replaced to fresh medium for 24 h. For ISX analysis, the cells were harvested (at 4 or 24 h after DOX NP addition) by trypsinization followed by centrifugation at 300 g for 5 min. The cell pellet was resuspended in FACS buffer (PBS containing 2% FBS, v/v) and cells were analyzed using ImageStreamX Mark II (Amnis, Seattle, Wash.). Cell acquisition and analysis were performed using IDEAS Application, version 6.0.

MDA-MB-231 cells [2] = assay: as above; format: cell-based, human; details: 5.8 μg/ml DOX
Experimental: as §1

[3] = tested on: CT26 mouse colon carcinoma cells; assay: In vitro cytotoxicity of MTX complexes, PrestoBlue cell viability assay; format: cell-based; details: CT26, 48 h incubation
Experimental: CT26 mouse colon carcinoma cells or MDA-MB-231 human breast cancer cell line were seeded in 48-well plates at a density of 10,000 cells per well. After 24 h, medium was replaced with medium containing MTX nano-complexes or free MTX at various concentrations. After 48 h incubation, cell viability was assessed using PrestoBlue cell viability assay (Life Technologies, Carlsbad, Calif.). The assay is based on the live cell's ability to reduce resazurin (non-fluorescent) to resorufin (fluorescent). PrestoBlue working solution was prepared by dilution of PrestoBlue reagent 1:10 in cell culture medium. PrestoBlue working solution was added to the cells for 1 h at 37° C. and 5% CO2. Fluorescent intensity was measured using the Synergy Mx microplate reader (Biotek, Winooski, Vt.) at an excitation wavelength of 560 nm and emission wavelength of 590 nm. The percentage of cell viability was obtained after normalizing the data to untreated cells.
Statistical analysis was performed with GraphPad Prism version 6.05 for Windows (GraphPad Software, San Diego, Calif.). All variables are expressed as mean±SEM. […] Differences between experimental groups as a function of drug concentration were evaluated by 2-way ANOVA, with Sidak's multiple comparisons test. […]

[4] = tested on: MDA-MB-231 human breast cancer cell line; assay: In vitro cytotoxicity of DOX NPs, PrestoBlue cell viability assay; format: cell-based; details: MDA-MB-231, 48 h
Experimental: MDA-MB-231 or DOX-resistant human ovary carcinoma cell line NAR cells were seeded in 48-well plates at a density of 10,000 cells per well. After 24 h, medium was replaced with medium containing DOX NPs or free DOX at various concentrations. After incubation for 4 h, the medium was replaced to drug-free culture medium. After 48 h incubation, cell viability was assessed using PrestoBlue cell viability assay, as described above.
Statistical analysis was performed with GraphPad Prism version 6.05 for Windows (GraphPad Software, San Diego, Calif.). All variables are expressed as mean±SEM. To test the hypothesis that changes in DLS and potential measurements varied over time among the experimental groups, a general linear 2-way repeated-measures (RM) ANOVA model was used. The model included the effects of treatment, time, and treatment-by-time interaction, with Sidak's multiple comparisons test. Viability data was fit using 4-parametric logistic regression curve, where applicable. IC50 values obtained from the intersection of regression line with 50% response. Differences between experimental groups as a function of drug concentration were evaluated by 2-way ANOVA, with Sidak's multiple comparisons test. P<0.05 was considered statistically significant.

SMILES | tumor size compared to controls (MDA-MB-231 cells [1]) | % positive cells (DOX-positive) (NAR cells; 4 h) | Mean Fluorescent intensity (NAR cells; 4 h) | % positive cells (DOX-positive) (NAR cells; 4 h, listed as free DOX) | % positive cells (DOX-positive) (NAR cells; 24 h) | Mean Fluorescent intensity (NAR cells; 24 h) | % positive cells (DOX-positive) (MDA-MB-231 cells [2]; MDA-MB-231, 4 h) | Mean Fluorescent intensity (MDA-MB-231 cells [2]; MDA-MB-231, 4 h) | % positive cells (DOX-positive) (MDA-MB-231 cells [2]; MDA-MB-231, 24 h) | Mean Fluorescent intensity (MDA-MB-231 cells [2]; MDA-MB-231, 24 h) | IC50 [3] | IC50 [4]
COc1cccc2c1C(=O)c1c(O)c3c(c(O)c1C2=O)C[C@@](O)(C(=O)CO)C[C@@H]3O[C@H]1C[C@H](N)[C@H](O)[C@H](C)O1.Cl [Free DOX, Doxorubicin-HCl] | reduced | 71% | 40932 | ~70% | 13% | 15108 | 90% | 59061 | 72% | 41944 |  | 
CN(Cc1cnc2nc(N)nc(N)c2n1)c1ccc(C(=O)N[C@@H](CCC(=O)O)C(=O)O)cc1 [MTX, Methotrexate] |  |  |  |  |  |  |  |  |  |  | 0.00696 µg/mL | 1.27 µg/mL (≈ 2.79 µM)
